PubChem BioAssay AID2060612 (Molecular Pharmacology Branch, DTP, NCI, 2025)
“And” between values parts separate entries of the source, which are not always exact repeats. Equal values may be shown once.

System: 565232-114-T-J1-PDC complex spheroid viability
Experiment: Anticancer human tumor 565232-114-T-J1-PDC patient-derived bladder carcinoma cell line growth inhibition [CLK]
Conditions: for viability, T/C: stronger effect = lower value
Summary of the method: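 Patient-derived tumor cells grown as complex spheroids with HUVEC endothelial cells and mesenchymal stem cells, treated with drug combinations. Concentrations descend in half-log steps from near clinical Cmax, or from 10 microM if Cmax unknown.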
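Further: spheroids exposed to compounds for 7 days before readout.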
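Wherever viability, T/C is given: 100% = DMSO vehicle wells with luminescence normalized to vehicle control.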

SMILES: CC1COCCN1c1cc(C2(S(C)(=N)=O)CC2)nc(-c2ccnc3[nH]ccc23)n1 (centres undefined) + CN1CCN(c2cc(C(=O)Nc3cc4cc(-c5cnn(C)c5)ccc4cn3)ccn2)CC1
- IC50 (curve of first compound, second compound 0.0316 µM): > 10 µM
- IC50 (curve of first compound, second compound 0.1 µM): 6.51 µM
- IC50 (curve of first compound, second compound 0.316 µM): < 0.0316 µM
- IC50 (curve of first compound, second compound 1 µM): < 0.0316 µM
- IC50 (curve of first compound, second compound 3.16 µM): < 0.0316 µM
- IC50 (curve of first compound, second compound 10 µM): < 0.0316 µM
- viability, T/C (second compound 0.0316 µM, first compound 0.0316 µM): 89.7%
- viability, T/C (second compound 0.0316 µM, first compound 0.1 µM): 93.5%
- viability, T/C (second compound 0.0316 µM, first compound 0.316 µM): 98.5%
- viability, T/C (second compound 0.0316 µM, first compound 1 µM): 79.7%
- viability, T/C (second compound 0.0316 µM, first compound 3.16 µM): 101%
- viability, T/C (second compound 0.0316 µM, first compound 10 µM): 50.7%
- viability, T/C (second compound 0.1 µM, first compound 0.0316 µM): 95.7%
- viability, T/C (second compound 0.1 µM, first compound 0.1 µM): 91.2%
- viability, T/C (second compound 0.1 µM, first compound 0.316 µM): 80.7%
- viability, T/C (second compound 0.1 µM, first compound 1 µM): 82.6%
- viability, T/C (second compound 0.1 µM, first compound 3.16 µM): 98.8%
- viability, T/C (second compound 0.1 µM, first compound 10 µM): 26.1%
- viability, T/C (second compound 0.316 µM, first compound 0.0316 µM): 16.3%
- viability, T/C (second compound 0.316 µM, first compound 0.1 µM): 18.7%
- viability, T/C (second compound 0.316 µM, first compound 0.316 µM): 14.9%
- viability, T/C (second compound 0.316 µM, first compound 1 µM): 9.37%
- viability, T/C (second compound 0.316 µM, first compound 3.16 µM): 3.94%
- viability, T/C (second compound 0.316 µM, first compound 10 µM): 3.31%
- viability, T/C (second compound 1 µM, first compound 0.0316 µM): 0.17%
- viability, T/C (second compound 1 µM, first compound 0.1 µM): 0.5%
- viability, T/C (second compound 1 µM, first compound 0.316 µM): 0.18%
- viability, T/C (second compound 1 µM, first compound 1 µM): 0.19%
- viability, T/C (second compound 1 µM, first compound 3.16 µM): 1.38%
- viability, T/C (second compound 1 µM, first compound 10 µM): 1.91%
- viability, T/C (second compound 3.16 µM, first compound 0.0316 µM): 0.25%
- viability, T/C (second compound 3.16 µM, first compound 0.1 µM): 0.22%
- viability, T/C (second compound 3.16 µM, first compound 0.316 µM): 3.08%
- viability, T/C (second compound 3.16 µM, first compound 1 µM): 0.81%
- viability, T/C (second compound 3.16 µM, first compound 3.16 µM): 0.72%
- viability, T/C (second compound 3.16 µM, first compound 10 µM): 2.22%
- viability, T/C (second compound 10 µM, first compound 0.0316 µM): 1.75%
- viability, T/C (second compound 10 µM, first compound 0.1 µM): 2.46%
- viability, T/C (second compound 10 µM, first compound 0.316 µM): 1.22%
- viability, T/C (second compound 10 µM, first compound 1 µM): 0.21%
- viability, T/C (second compound 10 µM, first compound 3.16 µM): 0.21%
- viability, T/C (second compound 10 µM, first compound 10 µM): 0.53%

SMILES: O=c1[nH]cc(F)c(=O)[nH]1
- viability, T/C (compound 0.0316 µM): 91.2% and 106%
- viability, T/C (compound 0.1 µM): 80.1% and 80.5%
- viability, T/C (compound 0.316 µM): 80.7% and 124%
- viability, T/C (compound 1 µM): 88.1% and 93.1%
- viability, T/C (compound 3.16 µM): 134% and 80.6%
- viability, T/C (compound 10 µM): 131% and 71.9%
- IC50 (curve of compound): > 10 µM
